Among the data in patent US9815843B2, “Compound, photosensitive resin composition comprising the same, and color filter” (Samsung SDI Co., Ltd., priority 2015, dated 2017) are Solubility values, retold here.

The data set can be described thus: Solubility measurement in dilution solvent (PGMEA). Particulars: 0.5 g compound, 25° C., 100 rpm, one hour. It is filed as physicochemical. The procedure: A dilution solvent (PGMEA) is respectively added to 0.5 g of the compounds according to Synthesis Examples 8 to 17 and Comparative Synthesis Examples 1 and 2, and each solution is stirred with a mixrotar (MIXROTAR VMR-5, Iuchi Seieido Co., Ltd.) at 25° C. and 100 rpm for one hour.
Reference for Solubility Evaluation
Greater than or equal to 10 wt % of a compound (a solute) is dissolved based on the total amount of a dilution solvent: ∘
Greater than or equal to 5 wt % but less than 10 wt % of a compound (a solute) is dissolved based on the total amount of a dilution solvent: Δ
Less than 5 wt % of a compound (a solute) is dissolved based on the total amount of a dilution solvent: X

For the compound `CCCCCOc1c(Cl)c(Cl)c2c(c1Cl)C1=NC/2=N\c2c3c(Cl)c(Cl)c(OCCCCC)c(Cl)c3c3[n]2[Zn][n]2/c(c4c(Cl)c(Cl)c(OCCCCC)c(Cl)c4/c2=N/1)=N\C1=NC(=N\3)/c2c(Cl)c(Cl)c(OCCCCC)c(Cl)c21` [Comparative Synthesis Example 2], the Solubility result is “Δ (Greater than or equal to 5 wt % but less than 10 wt % of a compound (a solute) is dissolved based on the total amount of a dilution solvent)”.
